The text below walks through data of patent US20260049105A1, “SELECTIVE MC4R LIGAND FOR TREATING OBESITY AND COGNITIVE LOSS” (ARIZONA BOARD OF REGENTS ON BEHALF OF THE UNIVERSITY OF …, priority 2022, published 2026).

In experiment [1] the target is T1, hMC3R (Homo sapiens, UniProt P41968).
T1 construct: expressed in transfected cells; host or cells: HEK293
The experiment in a line: Adenylate cyclase (cAMP) assay in transfected HEK293 cells. Format: cell-based. To be noted: HEK293, 0.05 h; hM3CR; cAMP at 10 μM in relation to MT-II; read-out: Act %. How it is done: (§1) HEK293 cells transfected with human melanocortin receptors were grown to confluence in MEM medium (GIBCO) containing 10% fetal bovine serum, 100 units/mL penicillin and streptomycin, and 1 mM sodium pyruvate. The cells were seeded on 96 well plates 48 hours before the assay, (100,000 cells/well). For the assay, the medium was removed and cells were rinsed with 1 mL of MEM buffer (GIBCO) or with Earle's balanced salt solution (EBSS, GIBCO). An aliquot (0.4 mL) of Earle's balanced salt solution was placed in each well along with isobutylmethylxanthine (IBMX; 5 μL; 0.5 mM) for 1 minute at 37° C. Varying concentrations of melanotropins (0.1 mL) were added and the cells incubated for 3 minutes at 37° C. The reaction was stopped by aspirating the buffer and adding ice-cold Tris/EDTA buffer to each well (0.15 mL). The 96 well plates were covered and placed on ice. After dislodging the cells, the plates were placed in a boiling water bath for 15 minutes. The cell lysate was then centrifuged for 10 minutes (4000 rpm), and 50 μL of the supernatant was aliquoted into perkinElmer glass fiber filter plate. cAMP content was measured by competitive binding assay in addition to 50 μL H^3 cAMP and 100 μL PKA. Then the system was placed on ice for 2 hours and then vacuum and filtered. 100 μL of the OptiPhase Supermix scintillation fluid was added to the plate. The plates stayed for 8 hours and then read by MicroBeta radiation plate reader.
(§2) IC50 and EC50 values represent the mean of duplicate experiments performed in triplicate. IC50 and EC50 estimates and their associated standard errors were determined by fitting the data using nonlinear least-squares analysis, with the help of Graphpad Prism 6.0 (Graphpad Software, San Diego, CA).
(§3) NA indicates 0% cAMP accumulation observed at 10 μM. The peptides were tested over a range of concentrations from 10^-10 to 10^-5 M.

Experiment [2] addresses T2, hMC5R (Homo sapiens, UniProt P33032).
T2 construct: expressed in transfected cells; host or cells: HEK293
The experiment is described as above. Format: cell-based. To be noted: HEK293, 0.05 h; hM5CR; cAMP at 10 μM in relation to MT-II; read-out: Act %. The protocol:
as §1, §2, §3

The target in experiment [3] is T3, hMC1R (Homo sapiens, UniProt Q01726).
T3 construct: expressed in transfected cells; host or cells: HEK293
Described as above. The following applies: HEK293, 0.05 h; hM1CR; cAMP at 10 μM in relation to MT-II; read-out: Act %. In kind it is cell-based. How it is done:
as §1, §2, §3

For experiment [4], the target named is T1, hMC3R. As to the kind of experiment: Competitive receptor binding assay, whole HEK293 cells, 125I-NDP-α-MSH. The following applies: 40 min; hM3CR; percentage of NDP-α-MSH displacement at 10 μM; read-out: BE %. How it is done: [The procedure below names another target; the source lists this target under the same test.] (§4) Competition binding experiments were performed on whole cells. The transfected HEK293 cell line with hMC4Rs were seeded on 96 well plates, 48 hours before the assay, 100,000 cells/well. For the assay, the medium was removed and cells were washed twice with a freshly prepared binding buffer containing 100% minimum essential medium with Earle's salt (MEM, GIBCO), 25 mM HEPES (pH 7.4), 0.2% bovine serum albumin, 1 mM 1,10-phenanthroline, 0.5 mg/L leupeptin, and 200 mg/L bacitracin. […] The medium was subsequently removed and each well was washed twice with the assay buffer. The cells are lysed by the addition of 250 μL of 0.1 NaOH and 250 μL of 1% Triton X-100. The lysed cell was transferred to the 12×75 mm glass tubes and the radioactivity was measured by Wallac 1470 WIZARD Gamma Counter. Data were analyzed using Graphpad Prism 6.0 (Graphpad Software, San Diego, CA).
as §2, §3

Experiment [5] addresses T3, hMC1R. The experiment is described as above. To be noted: for inhibition at 10 µM: 40 min, hM1CR, percentage of NDP-α-MSH displacement at 10 μM, read-out: BE %; for hMC1R binding affinity (in words): compared with the other analogues. How it is done:
[The procedure below names another target; the source lists this target under the same test.] as §4, §2, §3

For experiment [6], the target named is T2, hMC5R. The description is as above. To be noted: 40 min; hM5CR; percentage of NDP-α-MSH displacement at 10 μM; read-out: BE %. The protocol:
[The procedure below names another target; the source lists this target under the same test.] as §4, with “The lysed cell was transferred to the 12×75 mm glass tubes and the radioactivity was measured by Wallac 1470 WIZARD Gamma Counter.” left out
as §2, §3

In experiment [7] the target is T4, hMC4R (Homo sapiens, UniProt P32245).
T4 construct: expressed in transfected cells; host or cells: HEK293
As to the kind of experiment: Adenylate cyclase (cAMP) assay in transfected HEK293 cells. Format: cell-based. To be noted: HEK293, 0.05 h; hM4CR; percentage of cAMP produced at 10 μM in relation to MT-II; read-out: Act%. How it is done: as §1, with “The” for “HEK293 cells transfected with human melanocortin receptors were grown to confluence in MEM medium (GIBCO) containing 10% fetal bovine serum, 100 units/mL penicillin and streptomycin, and 1 mM sodium pyruvate. The”, “reader. IC50 and EC50 values represent the mean of duplicate experiments performed in triplicate. […] NA indicates 0% cAMP accumulation observed at 10 μM. The peptides were tested over a range of concentrations from 10^-10 to 10^-5 M.” for “reader.”

Experiment [8] has as its target T4, hMC4R. As to the kind of experiment: Competitive receptor binding assay, whole HEK293 cells, 125I-NDP-α-MSH. The following applies: 40 min; hM4CR; percentage of [125I]NDP-α-MSH displacement at 10 μM; read-out: BE%. How it is done:
as §4, with “The lysed cell was transferred to the 12×75 mm glass tubes and the radioactivity was measured by Wallac 1470 WIZARD Gamma Counter.” left out
IC50 and EC50 values represent the mean of duplicate experiments performed in triplicate. IC50 and EC50 estimates and their associated standard errors were determined by fitting the data using nonlinear least-squares analysis, with the help of Graphpad Prism 6.0 (Graphpad Software, San Diego, CA). […]

Experiment [9] addresses T4, hMC4R. As to the kind of experiment: Plasmon waveguide resonance (PWR) spectrum of hMC4R membranes with agonists.
Source text: PWR uses polarized light generated from a CW He—Ne laser (λ=632.8 nm or λ=543.5 nm), which passes through a glass prism under total internal reflection conditions. A thin metal film (Ag), which is deposited on the external surface of the prism, is overcoated with another thin layer of SiO2 as dielectric media. When there is an object attached to the dielectric layer of SiO2, and polarized laser forms a specific incident angle with the outer surface layer, the resonant excitation of collective electronic oscillations (plasmons) happens and generates an evanescent electromagnetic field localized at the dielectric film, which gives the absorption spectrum at that specific angle. This can be used to probe the optical properties of molecules immobilized on the outer surface of the prism. Resonance is achieved either by varying the laser light wavelength at a fixed angle or by varying the angle at a fixed laser wavelength(we used the latter one in this research). Any changes of the immobilized yield distinct incident angle that evanescence happens in the dielectric layer. Due to the ability that laser light can be polarized to either parallel (p) or perpendicular (s) to the incident plane, characterization of the molecular organization of anisotropic systems can be fulfilled, such as biomembranes containing integral proteins. Under the experimental conditions described herein, the optical parameters obtained with the p-polarization refer to the perpendicular direction, and those obtained with s-polarization refer to the parallel direction, relative to the bilayer membrane surface.
Resonance spectra in this study were obtained using a PWR instrument from Biopeptek Pharmaceuticals LLC. […] Recombinant HEK293 cells expressing the hMC4R were grown to confluency. The confluent cell monolayers were then washed with Ca^2+ and Mg^2+-deficient phosphate-buffered saline and were harvested in the same buffer containing 0.02% ethylenediaminetetraacetic acid (EDTA). After centrifugation at 1500 g for 10 minutes, the cells were homogenized in an ice-cold 10 mM Tris-HCl buffer and 1 mM EDTA (pH 7.4). A crude membrane fraction was collected by centrifugation at 40,000 g for 20 minutes at −4° C. and was stored at −80° C. until use. Before the PWR experiment, the membrane fraction was resuspended in a 20 mM Tris-HCl buffer (pH 7.4) by mild homogenization. Protein concentration was determined by using a Bradford assay.
Under the experimental conditions employed herein, the oscillation of light with p-polarization reflects the dimension of objects perpendicular to the membrane, and those obtained under the s-polarization vector refer to the dimension in parallel with the bilayer membrane surface.

T4 sequence (P32245 whole entry): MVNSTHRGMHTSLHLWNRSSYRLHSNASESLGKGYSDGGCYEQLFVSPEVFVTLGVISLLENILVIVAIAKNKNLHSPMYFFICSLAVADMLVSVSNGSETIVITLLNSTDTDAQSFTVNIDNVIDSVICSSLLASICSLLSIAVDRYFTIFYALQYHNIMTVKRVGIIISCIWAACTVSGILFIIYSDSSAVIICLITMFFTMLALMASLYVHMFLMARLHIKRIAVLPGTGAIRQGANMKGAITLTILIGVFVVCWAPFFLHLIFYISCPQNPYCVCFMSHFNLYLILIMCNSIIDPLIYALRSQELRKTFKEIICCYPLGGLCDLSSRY
T3 sequence (Q01726 whole entry): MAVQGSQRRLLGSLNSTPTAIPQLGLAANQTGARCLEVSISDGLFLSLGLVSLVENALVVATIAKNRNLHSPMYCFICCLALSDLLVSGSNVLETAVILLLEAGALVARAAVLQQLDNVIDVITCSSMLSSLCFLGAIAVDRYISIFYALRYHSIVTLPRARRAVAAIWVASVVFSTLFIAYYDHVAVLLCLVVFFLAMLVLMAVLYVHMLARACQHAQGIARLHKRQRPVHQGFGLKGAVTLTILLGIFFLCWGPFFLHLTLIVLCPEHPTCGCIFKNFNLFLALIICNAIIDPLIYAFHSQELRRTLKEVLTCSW
T1 sequence (P41968 whole entry): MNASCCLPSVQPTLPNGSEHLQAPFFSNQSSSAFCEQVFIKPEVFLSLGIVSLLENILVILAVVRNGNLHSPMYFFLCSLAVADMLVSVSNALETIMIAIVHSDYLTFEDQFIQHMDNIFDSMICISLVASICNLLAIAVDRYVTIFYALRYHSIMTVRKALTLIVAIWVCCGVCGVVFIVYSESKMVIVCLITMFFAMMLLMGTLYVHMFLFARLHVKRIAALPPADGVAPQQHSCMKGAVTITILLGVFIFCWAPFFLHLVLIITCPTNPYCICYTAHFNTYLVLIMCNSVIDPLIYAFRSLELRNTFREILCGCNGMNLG
T2 sequence (P33032 whole entry): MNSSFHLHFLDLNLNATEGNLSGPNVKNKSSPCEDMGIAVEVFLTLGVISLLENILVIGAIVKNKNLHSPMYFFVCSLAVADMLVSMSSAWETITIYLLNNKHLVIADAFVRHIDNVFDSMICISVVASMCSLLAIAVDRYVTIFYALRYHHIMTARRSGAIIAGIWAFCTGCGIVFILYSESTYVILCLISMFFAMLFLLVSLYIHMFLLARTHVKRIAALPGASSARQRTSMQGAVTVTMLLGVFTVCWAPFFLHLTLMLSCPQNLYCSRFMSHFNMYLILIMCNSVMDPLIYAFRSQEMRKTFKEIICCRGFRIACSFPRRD

Turning to `CC(=O)N[C@@H](CCCNC(=N)N)C(=O)N[C@H]1CC(=O)NCCCC[C@@H](C(N)=O)NC(=O)C[C@H](Cc2c[nH]c3ccccc23)NC(=O)C[C@H](CCCNC(=N)N)NC(=O)[C@@H](Cc2ccccc2)NC(=O)[C@@H]2CCCCN2C1=O` [compound 3, Ac-Arg-cyclo[Asp-Pip-D-Phe-βArg-BTrp-Lys]-NH2], the Emax at 10 µM on hMC3R [1] was 87%; on hMC5R [2], 82%; on hMC1R [3], 82%; on hMC4R [7], 84%. The inhibition at 10 µM amounted to 100% at hMC3R [4], 30% on hMC1R [5], 46% at hMC5R [6] and 100% on hMC4R [8]. Moreover, the “hMC1R binding affinity (in words)” value at hMC1R [5] is recorded as “lower binding affinities than the others”.

Take `CC(=O)N[C@@H](CCCNC(=N)N)C(=O)N[C@H]1CC(=O)NCCCC[C@@H](C(N)=O)NC(=O)[C@H](Cc2c[nH]c3ccccc23)NC(=O)C[C@H](CCCNC(=N)N)NC(=O)[C@@H](Cc2ccc(Cl)cc2)NC(=O)[C@@H]2CCCCN2C1=O` [compound 8, Ac-Arg-cyclo[Asp-Pip-D-Phe(4-Cl)-βArg-Trp-Lys]-NH2]: the Emax at 10 µM at hMC3R [1] is 46%; at hMC5R [2], 38%; on hMC1R [3], 89%; at hMC4R [7], 66%. Further, the inhibition at 10 µM on hMC3R [4] came to 100%; on hMC1R [5] it was 100%; on hMC5R [6], 0%; at hMC4R [8], 100%.

With `CC(=O)N[C@@H](CCCNC(=N)N)C(=O)N[C@H]1CC(=O)NCCCC[C@@H](C(N)=O)NC(=O)C[C@H](Cc2c[nH]c3ccccc23)NC(=O)[C@H](CCCNC(=N)N)NC(=O)[C@@H](Cc2ccc(F)cc2)NC(=O)[C@@H]2CCCCN2C1=O` [compound 4, Ac-Arg-cyclo[Asp-Pip-D-Phe(4-F)-Arg-BTrp-Lys]-NH2], the Emax at 10 µM was 76% at hMC3R [1], 72% on hMC5R [2], 90% on hMC1R [3] and 46% at hMC4R [7]. Also, the inhibition at 10 µM on hMC3R [4] turned out to be 100%; at hMC1R [5], 100%; on hMC5R [6] it was 100%; on hMC4R [8] it was 9%.

As to `CC(=O)N[C@@H](CCCNC(=N)N)C(=O)N[C@H]1CC(=O)NCCCC[C@@H](C(N)=O)NC(=O)C[C@H](Cc2c[nH]c3ccccc23)NC(=O)C[C@H](CCCNC(=N)N)NC(=O)[C@@H](Cc2ccc(F)cc2)NC(=O)[C@@H]2CCCCN2C1=O` [compound 6, Ac-Arg-cyclo[Asp-Pip-D-Phe(4-F)-βArg-BTrp-Lys]-NH2], the Emax at 10 µM on hMC3R [1] is 49%; at hMC5R [2] it was 51%; at hMC1R [3], 61%; at hMC4R [7], 120%. Also, the inhibition at 10 µM at hMC3R [4] was determined as 39%; on hMC1R [5] it was 0%; on hMC5R [6] it was 90%; on hMC4R [8] it was 59%. Moreover, on hMC1R [5], the “hMC1R binding affinity (in words)” value is listed as “lower binding affinities than the others”.

Regarding `CC(=O)N[C@@H](CCCNC(=N)N)C(=O)N[C@H]1CSSC[C@@H](C(N)=O)NC(=O)[C@H](Cc2c[nH]c3ccccc23)NC(=O)[C@H](CCCNC(=N)N)NC(=O)[C@@H](Cc2ccccc2)NC(=O)[C@H](Cc2c[nH]cn2)NC(=O)[C@@H](C)NC1=O` [RM493, reference compound], on hMC4R [9] (p-polarization, left shifted), the “PWR left shift under p-polarization relative to hMC4R sole” value is recorded as 0.25 degrees. For the same compound, on hMC4R [9] (s-polarization, sole MC4R 33.29), the “PWR absorbance location under s-polarization” value is 32.97.

For `CC(=O)N[C@@H](CCCNC(=N)N)C(=O)N[C@H]1CC(=O)NCCCC[C@@H](C(N)=O)NC(=O)C[C@H](Cc2c[nH]c3ccccc23)NC(=O)[C@H](CCCNC(=N)N)NC(=O)[C@@H](Cc2ccc(Cl)cc2)NC(=O)[C@@H]2CCCCN2C1=O` [compound 7, Ac-Arg-cyclo[Asp-Pip-D-Phe(4-Cl)-Arg-BTrp-Lys]-NH2], the Emax at 10 µM on hMC3R [1] is 24%; at hMC5R [2], 21%; on hMC1R [3] it was 67%; on hMC4R [7], 57%. The inhibition at 10 µM is 70% at hMC3R [4], 100% at hMC1R [5], 0% at hMC5R [6] and 100% at hMC4R [8].

Turning to `CC(=O)N[C@@H](CCCNC(=N)N)C(=O)N[C@H]1CC(=O)NCCCC[C@@H](C(N)=O)NC(=O)[C@H](Cc2c[nH]c3ccccc23)NC(=O)C[C@H](CCCNC(=N)N)NC(=O)[C@@H](Cc2ccccc2)NC(=O)[C@@H]2CCCCN2C1=O` [compound 2, Ac-Arg-cyclo[Asp-Pip-D-Phe-βArg-Trp-Lys]-NH2], the Emax at 10 µM at hMC3R [1] turned out to be 89%; on hMC5R [2], 90%; at hMC1R [3] it was 120%; on hMC4R [7], 67%. Besides, the inhibition at 10 µM on hMC3R [4] is 24%; on hMC1R [5], 100%; at hMC5R [6], 0%; on hMC4R [8], 100%.
